Source: EP0497314A1, “Use of azapirones in attention deficit hyperactivity disorder” (Bristol-Myers Squibb Company, priority 1991, dated 1992)
Structures can show the parent of a compound that is named as a salt. Marks after values point to notes of the source that are not given here.

Legend:
rabbit cortex = assay: Quantitative EEG, rabbit cortex, intravenous administration; assay type: in vivo, rabbits; conditions: for group percent change in electrical energy from pre-drug control, Δ band / mean change ± S.E. in electrical energy from pre-drug control, Δ band: Δ = 0.5-3.5 Hz; for group percent change in electrical energy from pre-drug control, α band / mean change ± S.E. in electrical energy from pre-drug control, α band: α= 7-13 Hz; for group percent change in electrical energy from pre-drug control, β band / mean change ± S.E. in electrical energy from pre-drug control, β band: β= 13-25 Hz; for group percent change in electrical energy from pre-drug control, γ band / mean change ± S.E. in electrical energy from pre-drug control, γ band: γ= 25-40 Hz; for group percent change in electrical energy from pre-drug control, θ band / mean change ± S.E. in electrical energy from pre-drug control, θ band: θ= 3.5-7.0 Hz
Experimental: At least 2 weeks were allowed for recovery before beginning experimentation.
Groups of four animals each were individually restrained and connected to an EEG amplifier and frequency analyzer. The EEG of each animal was recorded on a separate channel. The instrumentation filtered each channel of EEG analog data into five distinct frequency bands: Δ=0.5-3.5 Hz, ϑ=3.5-7.0 Hz, α=7-13 Hz, β=13-25 Hz and γ=25-40 Hz. The EEG analyzer then integrated the filtered waveforms and sent pulses to an associated computer at a rate proportional to the electrical energy of each band. Thus, one computer print-out provided a cortical EEG profile for the entire group of four rabbits.
Data from a one-hour recording period were collected in four 15-minute periods, which provided additional information concerning both onset and time of peak effect of drug activity. However, in this report only the mean activity of the four data collection periods was considered since onset of drug activity was immediate and duration of action was at least one hour for all drugs studied. Drug-induced EEG changes were determined by comparing the post-treatment print-out to the pretreatment control in the same animal and statistical analysis was performed on change from control, in counts, using multiple Student-t paired-comparison tests with p≦0.05 (Table 1). However, for clarity data are also presented as percent change from control (Figures 1 and 2).
All drugs were administered intravenously in saline solution as their respective salts and all dosage calculations were based on the free base. Recording was started immediately after injection and animals were not used more often than once per week. Initial doses were reduced geometrically until a no-effect dose was determined for each drug. However, only the "no-effect" data and the data generated from the next higher dose are presented in this report since the shape of the EEG profile is not dose-related, as opposed to the magnitude of the response which is dose-related.

[1] = system: fronto-occipital cortex of the cat; assay: Quantitative EEG, fronto-occipital cat cortex, subcutaneous administration; assay type: in vivo, cats; conditions: for group percent change in electrical energy from pre-drug control, Δ band / mean change ± S.E. in electrical energy from pre-drug control, Δ band / group percent change in electrical energy from pre-drug control, α band / mean change ± S.E. in electrical energy from pre-drug control, α band / group percent change in electrical energy from pre-drug control, β band / mean change ± S.E. in electrical energy from pre-drug control, β band / group percent change in electrical energy from pre-drug control, γ band / mean change ± S.E. in electrical energy from pre-drug control, γ band / group percent change in electrical energy from pre-drug control, θ band / mean change ± S.E. in electrical energy from pre-drug control, θ band: fronto-occipital cat cortex; for group percent change in electrical energy from pre-drug control, Δ band / mean change ± S.E. in electrical energy from pre-drug control, Δ band: Δ = 0.5-3.5 Hz; for group percent change in electrical energy from pre-drug control, α band / mean change ± S.E. in electrical energy from pre-drug control, α band: α= 7-13 Hz; for group percent change in electrical energy from pre-drug control, β band / mean change ± S.E. in electrical energy from pre-drug control, β band: β= 13-25 Hz; for group percent change in electrical energy from pre-drug control, γ band / mean change ± S.E. in electrical energy from pre-drug control, γ band: γ= 25-40 Hz; for group percent change in electrical energy from pre-drug control, θ band / mean change ± S.E. in electrical energy from pre-drug control, θ band: θ= 3.5-7.0 Hz
Text: This unique combination of activity may render buspirone useful in the treatment of childhood hyperkinesis which has been reported to respond to both selected phenothiazine and stimulant drugs. • (b) Adult mongrel female cats weighing 2.5-4.0 kg were implanted with EEG recording electrodes. Recording sites were as follows: fronto-occipital cortex, basal amygdala and ventral hippocampus.
Animals were individually held in canvas feline restraining bags for EEG recording. The EEG of each brain area was recorded on a separate channel. The instrumentation filtered each channel of EEG and analog data into five distinct frequency bands: Δ=0.5-3.5 Hz, ϑ=3.5-7.0 Hz, α=7-13 Hz, β=13-25 Hz and γ=25-40 Hz. The EEG analyzer then integrated the filtered waveforms and sent pulses to an associated computer at a rate proportional to the electrical energy of each band. Data collecting procedures were essentially the same as reported in Example 1. However, groups of six animals each were used and all drugs were administered subcutaneously in saline solution as their respective salts, but all dosages were calculated as the free base. Recording was started 30 minutes after injection to insure adequate drug absorption for peak activity.
Drug-induced EEG changes were determined by comparing the post-treatment data to the pre-treatment control in the same animal. Statistical analysis was performed on change from control, in instrument counts, using multiple Student-t-paired-comparison test with P≦0.05 (Table 2). However, for clarity data are also presented as percent change from control (Figures 3, 4 and 5).
The data in Table 2 are drug-induced changes resulting from the minimum and higher doses of each compound required to elicit the EEG profile characteristic of that particular drug.

[2] = rabbit cortex, 0.125 mg/kg free base i.v.
[3] = rabbit cortex, 0.25 mg/kg free base i.v.

CN(C)CCCN1c2ccccc2Sc2ccc(Cl)cc21 [Chlorpromazine HCl, chlorpromazine]
minimal effective dose (rabbit cortex; Oryctolagus cuniculus, iv, rabbit cortex EEG, dose of free base, read-out: the minimum dose required to produce the EEG profile characteristic of that particular drug): 0.25 mg/kg | relative potency by comparing minimal doses required to elicit EEG profiles (rabbit cortex; rabbit cortex EEG, i.v.): approximately twice as potent as buspirone | the no-effect dose (rabbit cortex; rabbit cortex EEG, dose of free base): 0.125† mg/kg, i.v. | EEG profile (rabbit cortex; rabbit cortex, i.v.): completely different from that produced by stimulant drugs | group percent change in electrical energy from pre-drug control, Δ band (rabbit cortex; [2]): +15% | mean change ± S.E. in electrical energy from pre-drug control, Δ band (rabbit cortex; [2]): +30 ± 17 instrument counts | group percent change in electrical energy from pre-drug control, Δ band (rabbit cortex; [3]): +75% | mean change ± S.E. in electrical energy from pre-drug control, Δ band (rabbit cortex; [3]): +198 ± 51 instrument counts | group percent change in electrical energy from pre-drug control, α band (rabbit cortex; [2]): +14% | mean change ± S.E. in electrical energy from pre-drug control, α band (rabbit cortex; [2]): +21 ± 19 instrument counts | group percent change in electrical energy from pre-drug control, α band (rabbit cortex; [3]): +42% | mean change ± S.E. in electrical energy from pre-drug control, α band (rabbit cortex; [3]): +65 ± 18 instrument counts | group percent change in electrical energy from pre-drug control, β band (rabbit cortex; [2]): +10% | mean change ± S.E. in electrical energy from pre-drug control, β band (rabbit cortex; [2]): +12 ± 11 instrument counts | group percent change in electrical energy from pre-drug control, β band (rabbit cortex; [3]): +30% | mean change ± S.E. in electrical energy from pre-drug control, β band (rabbit cortex; [3]): +42 ± 13 instrument counts | group percent change in electrical energy from pre-drug control, γ band (rabbit cortex; [2]): -3% | mean change ± S.E. in electrical energy from pre-drug control, γ band (rabbit cortex; [2]): -3 ± 2 instrument counts | group percent change in electrical energy from pre-drug control, γ band (rabbit cortex; [3]): +5% | mean change ± S.E. in electrical energy from pre-drug control, γ band (rabbit cortex; [3]): +4 ± 1 instrument counts | group percent change in electrical energy from pre-drug control, θ band (rabbit cortex; [2]): +13% | mean change ± S.E. in electrical energy from pre-drug control, θ band (rabbit cortex; [2]): +20 ± 17 instrument counts | group percent change in electrical energy from pre-drug control, θ band (rabbit cortex; [3]): +33% | mean change ± S.E. in electrical energy from pre-drug control, θ band (rabbit cortex; [3]): +65 ± 22 instrument counts | minimal effective dose ([1]; Felis catus, sc, fronto-occipital cat cortex EEG, dose of free base, read-out: the minimum dose required to produce the EEG profile characteristic of that particular drug): 1 mg/kg | the no-effect dose ([1]; fronto-occipital cat cortex EEG, dose of free base): 0.5† mg/kg, s.c. | group percent change in electrical energy from pre-drug control, Δ band ([1]; 0.5 mg/kg free base s.c.): +6% | mean change ± S.E. in electrical energy from pre-drug control, Δ band ([1]; 0.5 mg/kg free base s.c.): +14 ± 23 instrument counts | group percent change in electrical energy from pre-drug control, Δ band ([1]; 1.0 mg/kg free base s.c.): +25% | mean change ± S.E. in electrical energy from pre-drug control, Δ band ([1]; 1.0 mg/kg free base s.c.): +46 ± 16 instrument counts | group percent change in electrical energy from pre-drug control, Δ band ([1]; 4.0 mg/kg free base s.c.): +56% | mean change ± S.E. in electrical energy from pre-drug control, Δ band ([1]; 4.0 mg/kg free base s.c.): +83 ± 13 instrument counts | group percent change in electrical energy from pre-drug control, α band ([1]; 0.5 mg/kg free base s.c.): +19% | mean change ± S.E. in electrical energy from pre-drug control, α band ([1]; 0.5 mg/kg free base s.c.): +23 ± 14 instrument counts | group percent change in electrical energy from pre-drug control, α band ([1]; 1.0 mg/kg free base s.c.): +25% | mean change ± S.E. in electrical energy from pre-drug control, α band ([1]; 1.0 mg/kg free base s.c.): +33 ± 8 instrument counts | group percent change in electrical energy from pre-drug control, α band ([1]; 4.0 mg/kg free base s.c.): +38% | mean change ± S.E. in electrical energy from pre-drug control, α band ([1]; 4.0 mg/kg free base s.c.): +33 ± 2 instrument counts | group percent change in electrical energy from pre-drug control, β band ([1]; 0.5 mg/kg free base s.c.): +6% | mean change ± S.E. in electrical energy from pre-drug control, β band ([1]; 0.5 mg/kg free base s.c.): +6 ± 5 instrument counts | group percent change in electrical energy from pre-drug control, β band ([1]; 1.0 mg/kg free base s.c.): +9% | mean change ± S.E. in electrical energy from pre-drug control, β band ([1]; 1.0 mg/kg free base s.c.): +13 ± 6 instrument counts | group percent change in electrical energy from pre-drug control, β band ([1]; 4.0 mg/kg free base s.c.): -3% | mean change ± S.E. in electrical energy from pre-drug control, β band ([1]; 4.0 mg/kg free base s.c.): -3 ± 5 instrument counts | group percent change in electrical energy from pre-drug control, γ band ([1]; 0.5 mg/kg free base s.c.): -13% | mean change ± S.E. in electrical energy from pre-drug control, γ band ([1]; 0.5 mg/kg free base s.c.): -10 ± 4 instrument counts | group percent change in electrical energy from pre-drug control, γ band ([1]; 1.0 mg/kg free base s.c.): -10% | mean change ± S.E. in electrical energy from pre-drug control, γ band ([1]; 1.0 mg/kg free base s.c.): -10 ± 5 instrument counts | group percent change in electrical energy from pre-drug control, γ band ([1]; 4.0 mg/kg free base s.c.): -14% | mean change ± S.E. in electrical energy from pre-drug control, γ band ([1]; 4.0 mg/kg free base s.c.): -11 ± 3 instrument counts | group percent change in electrical energy from pre-drug control, θ band ([1]; 0.5 mg/kg free base s.c.): +15% | mean change ± S.E. in electrical energy from pre-drug control, θ band ([1]; 0.5 mg/kg free base s.c.): +22 ± 15 instrument counts | group percent change in electrical energy from pre-drug control, θ band ([1]; 1.0 mg/kg free base s.c.): +20% | mean change ± S.E. in electrical energy from pre-drug control, θ band ([1]; 1.0 mg/kg free base s.c.): +28 ± 10 instrument counts | group percent change in electrical energy from pre-drug control, θ band ([1]; 4.0 mg/kg free base s.c.): +53%
